The values that follow come from PubChem BioAssay AID328 (DTP/NCI, 2004).

The test concerns BDF1 mice, P388 leukemia ip, median survival T/C. The test can be described thus: NCI In Vivo Anticancer Drug Screen. Data for tumor model P388 Leukemia (intraperitoneal) in B6D2F1 (BDF1) mice. As to conditions: endpoint: median survival time, higher = longer survival. Put shortly: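 Steps: implant the tumour, treat one group with compound and another with vehicle, record survival, then divide treated by control.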

The mark [1] stands for this setting: dose: 300.0 mg/kg/injection, schedule: Q04DX003 (ip), vehicle: saline with Tween-80.
The mark [2] stands for this setting: dose: 100.0 mg/kg/injection, schedule: Q04DX003 (ip), vehicle: saline with Tween-80.
Where [3] appears, read: dose: 200.0 mg/kg/injection, schedule: Q04DX003 (ip), vehicle: saline with Tween-80.
[4] abbreviates: dose: 400.0 mg/kg/injection, schedule: Q04DX003 (ip), vehicle: saline with Tween-80.
The mark [5] stands for this setting: dose: 100.0 mg/kg/injection, schedule: Q04DX003 (ip), vehicle: saline.
[6] abbreviates: dose: 200.0 mg/kg/injection, schedule: Q04DX003 (ip), vehicle: saline.
The mark [7] stands for this setting: dose: 400.0 mg/kg/injection, schedule: Q04DX003 (ip), vehicle: saline.
The mark [8] stands for this setting: dose: 25.0 mg/kg/injection, schedule: Q01DX009 (ip), vehicle: saline with Tween-80.
[9] abbreviates: dose: 50.0 mg/kg/injection, schedule: Q01DX009 (ip), vehicle: saline with Tween-80.
Setting [10] is: dose: 50.0 mg/kg/injection, schedule: Q04DX003 (ip), vehicle: saline with Tween-80.
The mark [11] stands for this setting: dose: 100.0 mg/kg/injection, schedule: Q01DX009 (ip), vehicle: saline with Tween-80.
Where [12] appears, read: dose: 200.0 mg/kg/injection, schedule: Q01DX009 (ip), vehicle: saline with Tween-80.
Where [13] appears, read: dose: 400.0 mg/kg/injection, schedule: Q01DX009 (ip), vehicle: saline with Tween-80.

SMILES strings stand for the structures. Values joined by “and” are separate entries in the source; they are usually repeats but may differ in a detail not shown here. Identical values can stand only once. Toxic doses and inconclusive results are not listed.

Regarding `O=[N+]([O-])c1cc(C(F)(F)F)ccc1/C=C/c1ccccc1Br`, the T/C reads like this: (dose: 75.0 mg/kg/injection, schedule: Q04DX003 (ip), vehicle: saline with Tween-80) 86 % of control; (dose: 150.0 mg/kg/injection, schedule: Q04DX003 (ip), vehicle: saline with Tween-80) 90 % of control; under setting [1], 100 % of control.
On to `COC(=O)C(c1ccccc1)C(Br)C(=O)c1ccccc1` (stereo not drawn), for which the T/C reads like this: (dose: 100.0 mg/kg/injection, schedule: Q04DX003 (ip), vehicle: Klucel (hydroxypropylcellulose) (HPC)) 100 % of control; (dose: 200.0 mg/kg/injection, schedule: Q01DX009 (ip), vehicle: Klucel (hydroxypropylcellulose) (HPC)) 88 % of control; (dose: 200.0 mg/kg/injection, schedule: Q04DX003 (ip), vehicle: Klucel (hydroxypropylcellulose) (HPC)) 104 % of control; (dose: 400.0 mg/kg/injection, schedule: Q04DX003 (ip), vehicle: Klucel (hydroxypropylcellulose) (HPC)) 90 % of control.
`Cc1ccc(C(=O)C2C(c3ccccc3)N2Cc2ccccc2)cc1` (stereo not drawn): the T/C was 94 % of control and 99 % of control under setting [2]; 109 % of control and 92 % of control under setting [3]; 99 % of control and 87 % of control under setting [4].
For `C(/C=C/C=C/Nc1ccc(N=Nc2ccccc2)cc1)=Nc1ccc(N=Nc2ccccc2)cc1`, the T/C runs as follows: under setting [5], 90 % of control; under setting [6], 104 % of control; under setting [7], 95 % of control.
With `O=[N+]([O-])c1ccc(N=Nc2c(O)ccc3ccccc23)cc1`, the T/C was 109 % of control under setting [8]; 100 % of control under setting [9]; 111 % of control under setting [10]; 96 % of control under setting [11]; 120 % of control under setting [2]; 105 % of control under setting [12]. The T/C under setting [3] is 110 % of control, the T/C under setting [13] is 106 % of control and the T/C under setting [4] is 105 % of control.
For `CCN(CC)CCCC(C)NC(=O)c1cc(=O)[nH]c(=O)[nH]1` (stereo not drawn), the T/C is 103 % of control (dose: 25.0 mg/kg/injection, schedule: Q01DX009 (ip), vehicle: water); 106 % of control (dose: 50.0 mg/kg/injection, schedule: Q01DX009 (ip), vehicle: water); 100 % of control (dose: 100.0 mg/kg/injection, schedule: Q01DX009 (ip), vehicle: water); 100 % of control (dose: 100.0 mg/kg/injection, schedule: Q04DX003 (ip), vehicle: water); 98 % of control (dose: 200.0 mg/kg/injection, schedule: Q04DX003 (ip), vehicle: water).
Regarding `CCCCc1ccc(C(=O)O)nc1`, the T/C runs as follows: (dose: 12.5 mg/kg/injection, schedule: Q01DX009 (ip), vehicle: saline) 100 % of control; (dose: 25.0 mg/kg/injection, schedule: Q01DX009 (ip), vehicle: saline) 102 % of control; (dose: 50.0 mg/kg/injection, schedule: Q01DX009 (ip), vehicle: saline) 102 % of control.
In the case of `CCN(CC)c1ccc(C2NC(=O)c3ccccc3N2)cc1` (stereo not drawn), the T/C (dose: 25.0 mg/kg/injection, schedule: Q01DX009 (ip), vehicle: Klucel (hydroxypropylcellulose) (HPC)) was 110 % of control; the T/C (dose: 50.0 mg/kg/injection, schedule: Q01DX009 (ip), vehicle: Klucel (hydroxypropylcellulose) (HPC)) is 120 % of control; the T/C (dose: 100.0 mg/kg/injection, schedule: Q01DX009 (ip), vehicle: Klucel (hydroxypropylcellulose) (HPC)) is 95 % of control.
In the case of `C#CCCC#C`, the T/C is 100 % of control under setting [10]; 96 % of control (dose: 67.0 mg/kg/injection, schedule: Q01DX005 (ip), vehicle: saline with Tween-80); 115 % of control (dose: 100.0 mg/kg/injection, schedule: Q01DX005 (ip), vehicle: saline with Tween-80); 104 % of control under setting [2]; 92 % of control (dose: 150.0 mg/kg/injection, schedule: Q01DX005 (ip), vehicle: saline with Tween-80); 103 % of control under setting [12]. Besides, the T/C reads like this: under setting [3], 108 % of control; under setting [13], 111 % of control.
For `COc1cc(OC)c2c(O)c3c(c(-c4ccc5cc6c(c(O)c5c4O)C(=O)CC(C)(O)C6)c2c1)CC(C)OC3C` (stereo not drawn), the T/C by setting is: (dose: 0.19 mg/kg/injection, schedule: Q01DX009 (ip), vehicle: olive oil, sesame oil, peanut oil) 106 % of control; (dose: 0.39 mg/kg/injection, schedule: Q01DX009 (ip), vehicle: olive oil, sesame oil, peanut oil) 91 % of control; (dose: 0.78 mg/kg/injection, schedule: Q01DX009 (ip), vehicle: olive oil, sesame oil, peanut oil) 106 % of control; (dose: 1.56 mg/kg/injection, schedule: Q01DX009 (ip), vehicle: olive oil, sesame oil, peanut oil) 102 % of control and 111 % of control.
As for `Cc1ccccc1P(=O)(c1ccccc1C)c1ccccc1C`, the T/C is 90 % of control under setting [8], 94 % of control under setting [9] and 94 % of control under setting [11].
Consider `C=C1C(=O)OC2C=C(C)CC3C=C(CCC=C(C)CCC12)C(=O)O3` (stereo not drawn), for which the T/C by setting is: (dose: 10.0 mg/kg/injection, schedule: Q01DX009 (ip), vehicle: saline) 88 % of control; (dose: 30.0 mg/kg/injection, schedule: Q01DX009 (ip), vehicle: saline) 105 % of control; (dose: 40.0 mg/kg/injection, schedule: Q01DX009 (ip), vehicle: saline) 94 % of control; (dose: 60.0 mg/kg/injection, schedule: Q01DX009 (ip), vehicle: saline) 120 % of control; (dose: 120.0 mg/kg/injection, schedule: Q01DX009 (ip), vehicle: saline) 112 % of control.
As for `Nc1ccn(C2OC(COC3CCCCO3)C(OC3CCCCO3)C2OC2CCCCO2)c(=O)n1` (stereo not drawn), the T/C (dose: 50.0 mg/kg/injection, schedule: Q01DX007 (ip), vehicle: saline) is 108 % of control; the T/C (dose: 100.0 mg/kg/injection, schedule: Q01DX007 (ip), vehicle: saline) is 94 % of control; the T/C under setting [5] was 90 % of control; the T/C (dose: 200.0 mg/kg/injection, schedule: Q01DX007 (ip), vehicle: saline) is 94 % of control; the T/C under setting [6] was 86 % of control; the T/C (dose: 400.0 mg/kg/injection, schedule: Q01DX007 (ip), vehicle: saline) is 100 % of control. Moreover, the T/C under setting [7] was 104 % of control.
As for `CCCCCCCCCCSc1ncnc2nc[nH]c12`, the T/C by setting is: under setting [9], 87 % of control; under setting [2], 100 % of control; under setting [12], 108 % of control; under setting [3], 100 % of control.
As to `CC1CCC2C(C)C(=O)OC2C2(C)C(=O)C=CC12` (stereo not drawn), the T/C runs as follows: (dose: 6.4 mg/kg/injection, schedule: Q01DX009 (ip), vehicle: alcohol) 106 % of control; (dose: 9.6 mg/kg/injection, schedule: Q01DX009 (ip), vehicle: alcohol) 100 % of control; (dose: 14.0 mg/kg/injection, schedule: Q01DX009 (ip), vehicle: alcohol) 122 % of control; (dose: 22.0 mg/kg/injection, schedule: Q01DX009 (ip), vehicle: alcohol) 108 % of control.
On to `CC1(C)N=C(N)N=C(N)N1c1cccc(CCCCc2ccc(S(=O)(=O)F)cc2)c1`, for which the T/C is, setting by setting: (dose: 2.75 mg/kg/injection, schedule: Q01DX009 (ip), vehicle: saline) 120 % of control; (dose: 8.25 mg/kg/injection, schedule: Q01DX009 (ip), vehicle: saline) 150 % of control; (dose: 18.75 mg/kg/injection, schedule: Q01DX009 (ip), vehicle: saline) 150 % of control.
Consider `NC(=O)N(CCO)CCO`, for which the T/C was 100 % of control (dose: 100.0 mg/kg/injection, schedule: Q01DX009 (ip), vehicle: saline); 100 % of control under setting [5]; 90 % of control (dose: 200.0 mg/kg/injection, schedule: Q01DX009 (ip), vehicle: saline); 100 % of control under setting [6]; 100 % of control (dose: 400.0 mg/kg/injection, schedule: Q01DX009 (ip), vehicle: saline); 100 % of control under setting [7].
For the compound `ClCCN(CCCl)c1ccc2c3c(cccc13)-c1ccccc1-2`, the T/C is 151 % of control (dose: 66.0 mg/kg/injection, schedule: Q01DX009 (ip), vehicle: saline with Tween-80); 177 % of control under setting [11]; 160 % of control (dose: 132.0 mg/kg/injection, schedule: Q04DX003 (ip), vehicle: saline with Tween-80); 214 % of control (dose: 150.0 mg/kg/injection, schedule: Q01DX009 (ip), vehicle: saline with Tween-80); 182 % of control under setting [3]; 226 % of control under setting [1].
